Experimental data reported in patent US20050203000A1, “Use of benzyl alcohol, and other phenolic preservatives to reduce pain during intradermal injection” (priority 2003, published 2005).

Key:
[1] = Dermal irritancy of preservatives in intradermal formulations (Draize dermal irritation scoring); format: in vivo, human; details: irritancy potential had been seen in animal models such as swine
Excerpt: Benzyl alcohol, m-cresol and other preservatives were previously thought to be deleterious for inclusion in ID formulations based on their potential for dermal irritancy measured in animal models such as swine (Draize Irritancy Scores, NB 00-8440-01). In humans, however, these effects are not observed and beneficial results are gained in the perception of reduced pain.
(§1) Typically, each participating subject received a series of ‘treatments’ consisting of intradermal infusions or injections of either sterile unpreserved isotonic saline, or sterile bacteriostatic isotonic saline for injection in the anterior thigh using microneedle-based intradermal injection devices. Participants were asked to rate the pain immediately after the device was applied to the skin, and at the end of the injection/infusion procedure. In addition, injection sites were evaluated for irritation using the Draize dermal irritation scoring scale for erythema and edema, and for the presence of any other adverse skin effects, occurring at the time of injection or developing at a later time.

[2] = Pain perception of intradermal injection/infusion, Gracely Box SL Scale (0-20), human clinical study; format: in vivo; details: recent clinical trials
Procedure: A series of prospective, randomized, open label human clinical studies were conducted. The following inclusion criteria was typically used: • 18 years of age or older • In stable health status with no acute or severe illness • Willing to complete all study procedures • Available for designated study days
as §1, with “time. […]” for “time.”
Pain was determined using a Gracely Box SL Scale (reference: Heft, Gracely and Dubner, Pain, 1980, 9:363-373). Pain scores were typically recorded after insertion of the intradermal delivery device, and upon complete intradermal instillation of the total saline dose. […]
Typically, pain scale scores were analyzed by ANOVA using a linear-type model. […]

Row | Compound | Dermal irritancy effects in humans [1] | Pain scores for intradermal delivery compared with preservative-free solutions [2]
1 | OCc1ccccc1 [Benzyl alcohol] | not observed | 
2 | Cc1cccc(O)c1 [m-cresol] | not observed | 
3 | insulin |  | significantly lower pain scores
